From patent publication US11396522B2, “Bis-acetal-based substrates for imaging exo-glycosidase activity” (ALECTOS THERAPEUTICS INC., priority 2017, dated 2022)

Assays:
[1] = molecular target: T1, human Galactosylceramidase (GALC) (Homo sapiens, UniProt P54803); assay: In vitro kinetic assay with human GALC; format: biochemical; settings: 5 nM recombinant human GALC
T1 construct: purchased R&D systems
T1 sequence (P54803 43-685): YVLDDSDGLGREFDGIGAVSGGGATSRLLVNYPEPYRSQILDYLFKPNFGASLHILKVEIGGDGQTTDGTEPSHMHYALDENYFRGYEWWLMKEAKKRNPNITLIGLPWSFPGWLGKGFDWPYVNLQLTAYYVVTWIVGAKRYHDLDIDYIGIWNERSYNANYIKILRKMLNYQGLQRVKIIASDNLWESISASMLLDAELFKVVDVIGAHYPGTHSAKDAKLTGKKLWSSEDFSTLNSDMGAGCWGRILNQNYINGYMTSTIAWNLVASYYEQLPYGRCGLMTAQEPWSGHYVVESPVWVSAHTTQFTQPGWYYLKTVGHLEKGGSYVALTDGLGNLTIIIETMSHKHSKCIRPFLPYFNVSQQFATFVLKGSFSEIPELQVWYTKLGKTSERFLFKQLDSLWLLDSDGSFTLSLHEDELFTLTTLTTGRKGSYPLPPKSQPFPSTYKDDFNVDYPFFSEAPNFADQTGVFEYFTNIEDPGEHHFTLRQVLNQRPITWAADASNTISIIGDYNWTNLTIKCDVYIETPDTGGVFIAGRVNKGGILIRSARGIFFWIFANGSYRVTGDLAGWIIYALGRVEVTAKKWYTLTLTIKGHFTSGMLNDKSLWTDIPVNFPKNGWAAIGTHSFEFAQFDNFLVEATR
Procedure: (§1) For some experiments, fluorescence kinetic assays were performed using a Varian Cary Eclipse Spectrophotometer set for 335/493 nm excitation/emission wavelengths. Slits were set at 10 nm and the detector was set on Medium voltage. Enzymatic reactions with human OGA were carried out in PBS at 37° C. and were started by addition of hOGA (WT, Full-length, expressed in E. coli. as previously described) in a total volume of 160 μL (Starna sub-micro Fluorometer cuvette). For measurements of rates using different concentrations of substrates, a hOGA concentration of 100 nM was used. For hOGA titration, 25 μM of Glyco-BABS were added to various concentration of hOGA. […] EDANS standard curve was established using endpoint fluorescence measurements of serial dilutions of EDANS in the relevant buffer using the same instrument parameters. Inner-Filter effect measurements were carried out in cuvette by measuring fluorescence of several concentrations of EDANS in presence of various concentrations of GlcNAc-BABS. Kinetics with Glc-BABS and GBA enzymes (GBA1 and GBA3 purchased from R&D Systems), kinetics with GALC (R&D systems) and Gal-BABS, pH stability, quenching efficiency, some inner-filter effect experiments and lysates experiments were carried out using a Molecular Devices SpectraMax i3× plate reader. […]

GBA1 = molecular target: T2, GBA1 (Homo sapiens, UniProt P04062); assay: In vitro kinetic assay with GBA1; format: biochemical; parameters: purchased R&D Systems; settings: GBA enzymes at 50 nM
T2 sequence (P04062 40-536): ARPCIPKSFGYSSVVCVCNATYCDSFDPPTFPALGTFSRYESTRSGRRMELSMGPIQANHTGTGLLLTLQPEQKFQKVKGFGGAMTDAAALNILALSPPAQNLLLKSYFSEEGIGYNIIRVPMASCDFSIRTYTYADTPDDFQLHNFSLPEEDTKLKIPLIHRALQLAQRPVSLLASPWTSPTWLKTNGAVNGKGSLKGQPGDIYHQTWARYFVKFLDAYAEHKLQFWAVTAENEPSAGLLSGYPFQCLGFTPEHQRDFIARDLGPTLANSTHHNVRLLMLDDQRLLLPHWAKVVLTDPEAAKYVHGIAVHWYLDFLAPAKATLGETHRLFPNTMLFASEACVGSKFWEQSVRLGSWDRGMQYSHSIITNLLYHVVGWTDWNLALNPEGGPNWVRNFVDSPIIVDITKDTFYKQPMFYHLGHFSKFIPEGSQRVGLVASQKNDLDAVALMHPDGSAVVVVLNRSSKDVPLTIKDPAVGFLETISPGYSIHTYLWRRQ
Procedure: as §1

[2] = pH stability of Glyco-BABS; format: physicochemical; settings: 5 μM, up to 72 h, pH 2 to 10
Text: One concern with the Glyco-BABS design was the known lability of acetals under acidic conditions that has been exploited in pH-sensitive prodrugs or linkers for drug delivery.^41,42 However, we recognized that carbohydrate anomeric acetals are chemically distinct from regular acetals. Due to stabilization by the endocyclic oxygen, we expected these bis-acetals would show stability across a range of physiological pH values. We therefore assessed the stability of the bis-acetal motif toward acid and base hydrolysis (FIG. 8). To do so, we tested the pH stability of 5 μM of GlcNAc-Br-BABS 1, GlcNAc-OH-BABS 2, Glc-OH-BABS 6 and Glc-H-BABS 7 at different pH over time. We prepared solutions at various pH by mixing 0.2 M KCl+0.1 M HCl with 0.2 M KCl+0.1 M KOH. Fluorescence of EDANS and Glyco-BABS solutions (5 μM, 45 μL) at different pH was measured at different time points in Nunc 384-well plates using a SpectraMax i3× plate reader. Data (triplicates) support the highly efficient quenching and the stability of these substrates over a wide range of pH.

SMILES	turnover by human GALC [1]	turnover by GBA1 (GBA1)	pH stability (increase of fluorescence) [2]
CN(C)c1ccc(/N=N/c2ccc(C(=O)NCc3cn(CCOCCO[C@H](O[C@@H]4O[C@H](CO)[C@H](O)[C@H](O)[C@H]4O)[C@@](C)(Br)C(=O)NCCNc4cccc5c(S(=O)(=O)O)cccc45)nn3)cc2)cc1 [Compound 4, 5-((2-((2R,3R)-2-bromo-3-(2-(2-(4-((4-((E)-(4-(dimethylamino)phenyl)diazenyl)benzamido)methyl)-1H-1,2,3-triazol-1-yl)ethoxy)ethoxy)-2-methyl-3-(((2S,3R,4S,5R,6R)-3,4,5-trihydroxy-6-(hydroxymethyl)tetrahydro-2H-pyran-2-yl)oxy)propanamido)ethyl)amino)naphthalene-1-sulfonic Acid]	turned over		
CN(C)c1ccc(/N=N/c2ccc(C(=O)NCc3cn(CCOCCO[C@H](O[C@@H]4O[C@H](CO)[C@H](O)[C@H](O)[C@H]4O)[C@@](C)(O)C(=O)NCCNc4cccc5c(S(=O)(=O)O)cccc45)nn3)cc2)cc1 [Compound 5, 5-((2-((2R,3R)-3-(2-(2-(4-((4-((E)-(4-(dimethylamino)phenyl)diazenyl)benzamido)methyl)-1H-1,2,3-triazol-1-yl)ethoxy)ethoxy)-2-hydroxy-2-methyl-3-(((2S,3R,4S,5R,6R)-3,4,5-trihydroxy-6-(hydroxymethyl)tetrahydro-2H-pyran-2-yl)oxy)propanamido)ethyl)amino)naphthalene-1-sulfonic Acid]	turned over		
CN(C)c1ccc(/N=N/c2ccc(C(=O)NCc3cn(CCOCCOC(CC(=O)NCCNc4cccc5c(S(=O)(=O)O)cccc45)O[C@@H]4O[C@H](CO)[C@@H](O)[C@H](O)[C@H]4O)nn3)cc2)cc1 (stereo partly drawn) [Compound 7, 5-((2-(3-(2-(2-(4-((4-((E)-(4-(dimethylamino)phenyl)diazenyl)benzamido)methyl)-1H-1,2,3-triazol-1-yl)ethoxy)ethoxy)-3-(((2S,3R,4S,5S,6R)-3,4,5-trihydroxy-6-(hydroxymethyl)tetrahydro-2H-pyran-2-yl)oxy)propanamido)ethyl)amino)naphthalene-1-sulfonic Acid]		turned over by GBA1 only	no significant increase of fluorescence
